{"source": "BindingDB's records for patent US20230365627", "about": "(Bristol Myers Squibb, 2023)", "note": "*1 amine or outer side, *2 acyl side, *3 side chain or, on linkers, in order; H or OH if unused. Where a SMILES comes first, the peptide text is derived from it. Bridges are numbered along the chain shown (N, C = ends). [ ]: non-standard residue; d: D form. X14 = O=C([C@H](CN1Cc2cccc(c2)B2OCC(O)[C@@H](O2)[C@@H](O)[C@H](O)[C@H](O)C1)N[*:1])[*:2]; X13 = O=C([C@H](CCNC[C@@H](O)[C@@H](O)[C@H](O)[C@H](O)C(O)CO)N[*:1])[*:2]; Trp(1-CH2COOH) = N[C@@H](Cc1cn(CC(=O)O)c2ccccc12)C(=O)O; Hyp = O=C(O)[C@@H]1C[C@@H](O)CN1; NMeNle = CCCC[C@H](NC)C(=O)O; NMeA = CN[C@@H](C)C(=O)O", "data": [{"molecular_target": "Programmed cell death 1 ligand/protein 1 (Homo sapiens, UniProt Q9NZQ7)", "sequence (Q9NZQ7 whole entry, the tested form may be a part)": "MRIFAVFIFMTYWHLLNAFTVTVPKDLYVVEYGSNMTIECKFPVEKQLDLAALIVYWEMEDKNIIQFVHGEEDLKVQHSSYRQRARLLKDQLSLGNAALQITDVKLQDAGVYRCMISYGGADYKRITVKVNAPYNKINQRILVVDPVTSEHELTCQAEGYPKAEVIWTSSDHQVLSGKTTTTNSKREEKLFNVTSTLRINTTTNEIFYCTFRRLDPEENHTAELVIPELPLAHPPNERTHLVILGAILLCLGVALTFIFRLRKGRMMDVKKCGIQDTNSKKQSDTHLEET", "sequence (Q15116 whole entry, further chain, the tested form may be a part)": "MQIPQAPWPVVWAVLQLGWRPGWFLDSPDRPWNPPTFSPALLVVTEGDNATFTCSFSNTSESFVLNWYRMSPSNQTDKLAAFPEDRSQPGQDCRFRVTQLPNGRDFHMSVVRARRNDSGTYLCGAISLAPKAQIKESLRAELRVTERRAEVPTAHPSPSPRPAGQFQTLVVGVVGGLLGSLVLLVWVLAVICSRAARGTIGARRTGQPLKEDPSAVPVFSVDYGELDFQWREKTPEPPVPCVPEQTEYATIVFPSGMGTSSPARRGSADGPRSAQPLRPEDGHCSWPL", "assay": "Binding of PD-1 to PD-L1 Using Homogenous Time-Resolved Fluorescence (HTRF) Binding Assay", "method": "Homogenous Time-Resolved Fluorescence (HTRF) Binding Assay. The interaction of PD-1 and PD-L1 can be assessed using soluble, purified preparations of the extracellular domains of the two proteins. The PD-1 and PD-L1 protein extracellular domains were expressed as fusion proteins with detection tags, for PD-1, the tag was the Fc portion of Immunoglobulin (PD-1-Ig) and for PD-L1 it was the 6 histidine motif (PD-L1-His). All binding studies were performed in an HTRF assay buffer consisting of dPBS supplemented with 0.1% […] bovine serum albumin and 0.05% (v/v) Tween-20. For the h/PD-L1-His binding assay, inhibitors were pre-incubated with PD-L1-His (10 nM final) for 15 m in 4 μl of assay buffer, followed by addition of PD-1-Ig (20 nM final) in 1 μl of assay buffer and further incubation for 15 m. HTRF detection was achieved using europium cryptate-labeled anti-Ig (1 nM final) and allophycocyanin (APC) labeled anti-His (20 nM final). Antibodies were diluted in HTRF detection buffer and 5 μl was dispensed on top of the binding reaction. The reaction mixture was allowed to equilibrate for 30 minutes and the resulting signal (665 nm/620 nm ratio) was obtained using an EnVision fluorometer. Additional binding assays were established between the human proteins PD-1-Ig/PD-L2-His (20 & 5 nM, respectively) and CD80-His/PD-L1-Ig (100 & 10 nM, respectively).", "units": {"IC50": "nM"}, "values": [{"smiles": "CCCC[C@H]1C(=O)N(C)[C@@H](CCCC)C(=O)N[C@@H](CC(C)C)C(=O)N[C@H](C(=O)NCC(N)=O)CSCC(=O)N[C@@H](Cc2ccc(O)cc2)C(=O)N(C)[C@@H](C)C(=O)N[C@@H](CC(N)=O)C(=O)N2CCC[C@H]2C(=O)N[C@H]2CNC[C@@H](O)[C@@H](O)[C@H](O)[C@@H]3OB(OCC3O)c3ccccc3CNCC[C@H](NC(=O)[C@H](Cc3c[nH]c4ccccc34)NC(=O)[C@@H]3C[C@@H](O)CN3C(=O)[C@H](CC(C)C)NC2=O)C(=O)N[C@@H](Cc2cn(CC(=O)O)c3ccccc23)C(=O)N1C", "note": "(some centres undefined) [US20230365627, Compound 1035]", "IC50": 4}, {"smiles": "CCCC[C@H]1C(=O)N(C)[C@@H](CCCC)C(=O)N[C@@H](CC(C)C)C(=O)N[C@H](C(=O)NCC(N)=O)CSCC(=O)N[C@@H](Cc2ccc(O)cc2)C(=O)N(C)[C@@H](C)C(=O)N[C@@H](CC(N)=O)C(=O)N2CCC[C@H]2C(=O)N[C@H]2CNC[C@@H](O)[C@@H](O)[C@H](O)[C@@H]3OB(OCC3O)c3cccc(c3)CNCC[C@H](NC(=O)[C@H](Cc3c[nH]c4ccccc34)NC(=O)[C@@H]3C[C@@H](O)CN3C(=O)[C@H](CC(C)C)NC2=O)C(=O)N[C@@H](Cc2cn(CC(=O)O)c3ccccc23)C(=O)N1C", "note": "(some centres undefined) [US20230365627, Compound 1036]", "IC50": 9.5}, {"smiles": "CCCC[C@H]1C(=O)N(C)[C@@H](CCCC)C(=O)N[C@@H](CC(C)C)C(=O)N[C@H](C(=O)NCC(N)=O)CSCC(=O)N[C@@H](Cc2ccc(O)cc2)C(=O)N(C)[C@@H](C)C(=O)N[C@@H](CC(N)=O)C(=O)N2CCC[C@H]2C(=O)N[C@H]2CNC[C@@H](O)[C@@H](O)[C@H](O)[C@@H]3OB(OCC3O)c3ccc(cc3)CNCC[C@H](NC(=O)[C@H](Cc3c[nH]c4ccccc34)NC(=O)[C@@H]3C[C@@H](O)CN3C(=O)[C@H](CC(C)C)NC2=O)C(=O)N[C@@H](Cc2cn(CC(=O)O)c3ccccc23)C(=O)N1C", "note": "(some centres undefined) [US20230365627, Compound 1037]", "IC50": 9.5}, {"smiles": "CCCC[C@H]1C(=O)N(C)[C@@H](CCCC)C(=O)N[C@@H](CC(C)C)C(=O)N[C@H](C(=O)NCC(N)=O)CSCC(=O)N[C@@H](Cc2ccc(O)cc2)C(=O)N(C)[C@@H](C)C(=O)N[C@@H](CC(N)=O)C(=O)N2CCC[C@H]2C(=O)N[C@@H](CN2Cc3cccc(c3)B3OCC(O)[C@@H](O3)[C@@H](O)[C@H](O)[C@H](O)C2)C(=O)N[C@@H](CC(C)C)C(=O)N2C[C@H](O)C[C@H]2C(=O)N[C@@H](Cc2c[nH]c3ccccc23)C(=O)N[C@@H](CCNC[C@@H](O)[C@@H](O)[C@H](O)[C@H](O)C(O)CO)C(=O)N[C@@H](Cc2cn(CC(=O)O)c3ccccc23)C(=O)N1C", "note": "(some centres undefined) [US20230365627, Compound 1040] ({CH2CO}-Y[NMeA]NP[X14]L[Hyp]W[X13][Trp(1-CH2COOH)][NMeNle][NMeNle]LCG-NH2; thioether N-14)", "IC50": 5.6}]}]}
